From patent US20180273538A1, “PYRROLO[2,3-d]PYRIMIDINE DERIVATIVES, A PROCESS FOR THEIR PREPARATION AND PHARMACEUTICAL COMPOSITIONS CONTAINING THEM” (LES LABORATOIRES SERVIER, priority 2015, published 2018)

These compounds were tested against T1, His-TEV-DYRK1A Kinase domain (aa127-485) (Homo sapiens, UniProt Q13627) (assay: Kinase ADP assay (ADP Hunter Plus)).
T1 construct: His-TEV-DYRK1A Kinase domain (aa127-485); His (N); TEV cleavage site (N)
Format: biochemical

Row | SMILES | IC50 [µM]
1 | Cc1nc(Nc2ccccc2)c2c(-c3ccnc(N)c3)c[nH]c2n1 [Example 129, 5-(2-aminopyridin-4-yl)-2-methyl-N-phenyl-7H-pyrrolo[2,3-d]pyrimidin-4-amine] | 0.072
2 | COC1CCN(c2nc(C)nc3[nH]cc(-c4ccnc(N)c4)c23)CC1 [Example 133, 4-[4-(4-methoxypiperidin-1-yl)-2-methyl-7H-pyrrolo[2,3-d]pyrimidin-5-yl]pyridin-2-amine] | 0.269
3 | Cc1nc(N2C[C@@H](C)O[C@@H](C)C2)c2c(-c3cc(N)nc(N)c3)c[nH]c2n1 [Example 126, 4-{4-[(2R,6S)-2,6-dimethylmorpholin-4-yl]-2-methyl-7H-pyrrolo[2,3-d]pyrimidin-5-yl}pyridine-2,6-diamine + 4-{4-[(2S,6R)-2,6-dimethylmorpholin-4-yl]-2-methyl-7H-pyrrolo[2,3-d]pyrimidin-5-yl}pyridine-2,6-diamine] | 0.418
4 | Cc1nc(NCC2COc3ccccc32)c2c(-c3ccnc(N)c3)c[nH]c2n1 (centres unmarked) [Example 112, 5-(2-aminopyridin-4-yl)-N-(2,3-dihydro-1-benzofuran-3-ylmethyl)-2-methyl-7H-pyrrolo[2,3-d]pyrimidin-4-amine] | 0.234
5 | Cc1cc(-c2c[nH]c3nc(C)nc(NCc4c(F)cccc4F)c23)nc(N)n1 [Example 205, 5-(2-amino-6-methylpyrimidin-4-yl)-N-(2,6-difluorobenzyl)-2-methyl-7H-pyrrolo[2,3-d]pyrimidin-4-amine] | 0.055
6 | COc1ccccc1C#Cc1nc(C)nc2[nH]cc(-c3ccnc(N)c3)c12 [Example 197] | 0.009
7 | Cc1nc(OCCN2CCCCC2)c2c(-c3ccncc3)c[nH]c2n1 [Example 13, 2-methyl-4-[2-(piperidin-1-yl)ethoxy]-5-(pyridin-4-yl)-7H-pyrrolo[2,3-d]pyrimidine] | 1.37
8 | Cc1nc(N2CC[C@H]3CCCC[C@H]3C2)c2c(-c3ccnc(N)c3)c[nH]c2n1 [Example 110] | 0.048
9 | Cc1nc(N(C)C)c2c(-c3ccnc(N)c3)c[nH]c2n1 [Example 29, 5-(2-aminopyridin-4-yl)-N,N,2-trimethyl-7H-pyrrolo[2,3-d]pyrimidin-4-amine] | 0.062
10 | Cc1nc(-c2cccc(OCCCl)c2)c2c(-c3ccnc(N)c3)c[nH]c2n1 [Example 201] | 0.012
11 | Cc1nc(NCc2cc(Cl)ccc2Cl)c2c(-c3ccnc(N)c3)c[nH]c2n1 [Example 92, 5-(2-aminopyridin-4-yl)-N-(2,5-dichlorobenzyl)-2-methyl-7H-pyrrolo[2,3-d]pyrimidin-4-amine] | 0.087
12 | Cc1nc(CCc2ccccc2)c2c(-c3ccnc(N)c3)c[nH]c2n1 [Example 160] | 0.184
13 | COC1CCCN(c2nc(C)nc3[nH]cc(-c4ccnc(N)c4)c23)C1 (centres unmarked) [Example 138, 4-[4-(3-methoxypiperidin-1-yl)-2-methyl-7H-pyrrolo[2,3-d]pyrimidin-5-yl]pyridin-2-amine] | 0.407
14 | Cc1nc(-c2cccc(N3CCCC3)c2)c2c(-c3ccnc(N)c3)c[nH]c2n1 [Example 171] | 0.033
15 | Cc1nc(NCc2ccsc2)c2c(-c3ccncc3)c[nH]c2n1 [Example 44, 2-methyl-5-(pyridin-4-yl)-N-(thiophen-3-ylmethyl)-7H-pyrrolo[2,3-d]pyrimidin-4-amine] | 0.249
16 | Cc1nc(NCc2c(F)cccc2F)c2c(-c3cc(N)ncn3)c[nH]c2n1 [Example 212, 5-(6-aminopyrimidin-4-yl)-N-(2,6-difluorobenzyl)-2-methyl-7H-pyrrolo[2,3-d]pyrimidin-4-amine] | 0.009
17 | Cc1nc(N[C@@H]2CCc3ccccc32)c2c(-c3cc(N)nc(N)c3)c[nH]c2n1 [Example 118, 4-{4-[(1R)-2,3-dihydro-1H-inden-1-ylamino]-2-methyl-7H-pyrrolo[2,3-d]pyrimidin-5-yl}pyridine-2,6-diamine] | 0.011
18 | Cc1nc(-c2cccc(OCCN(C)C)c2)c2c(-c3ccnc(N)c3)c[nH]c2n1 [Example 203] | 0.155
19 | Cc1nc(N2CCN(C)CC2)c2c(-c3ccnc(N)c3)c[nH]c2n1 [Example 33, 4-[2-methyl-4-(4-methypiperazin-1-yl)-7H-pyrrolo[2,3-d]pyrimidin-5-yl]pyridin-2-amine] | 0.165
20 | Cc1nc(N2CCOC(C)C2)c2c(-c3cc(N)nc(N)c3)c[nH]c2n1 (centres unmarked) [Example 143, 4-[2-methyl-4-(2-methylmorpholin-4-yl)-7H-pyrrolo[2,3-d]pyrimidin-5-yl]pyridine-2,6-diamine] | 1.06
21 | Cc1nc(OCC2CC2)c2c(-c3ccncc3)c[nH]c2n1 [Example 7, 4-(cyclopropylmethoxy)-2-methyl-5-(pyridin-4-yl)-7H-pyrrolo[2,3-d]pyrimidine] | 0.039
22 | Cc1nc(N[C@H](C)c2ccccc2F)c2c(-c3ccnc(N)c3)c[nH]c2n1 [Example 86, 5-(2-aminopyridin-4-yl)-N-[(1R)-1-(2-fluorophenyl)ethyl]-2-methyl-7H-pyrrolo[2,3-d]pyrimidin-4-amine] | 0.121

Row | SMILES | IC50 [µM]
23 | Cc1nc(-c2cccc(OCCCN3CCN(C)CC3)c2)c2c(-c3ccnc(N)c3)c[nH]c2n1 [Example 200] | 0.027
24 | Cc1nc(COc2ccccc2C(F)(F)F)c2c(-c3ccnc(N)c3)c[nH]c2n1 [Example 193, 4-(2-methyl-4-{[2-(trifluoromethyl)phenoxy]methyl}-7H-pyrrolo[2,3-d]pyrimidin-5-yl)pyridin-2-amine] | 0.116
25 | Cc1nc(-c2ccc(CN3CCN(C)CC3)cc2)c2c(-c3ccnc(N)c3)c[nH]c2n1 [Example 169, 4-(2-methyl-4-{4-[(4-methylpiperazin-1-yl)methyl]phenyl}-7H-pyrrolo[2,3-d]pyrimidin-5-yl)pyridin-2-amine] | 0.216
26 | Cc1nc(-c2ccc(C#N)c(F)c2)c2c(-c3ccnc(N)c3)c[nH]c2n1 [Example 175] | 0.146
27 | Cc1nc(N2CCOC(C)C2)c2c(-c3ccnc(N)c3)c[nH]c2n1 (centres unmarked) [Example 137, 4-[2-methyl-4-(2-methylmorpholin-4-yl)-7H-pyrrolo[2,3-d]pyrimidin-5-yl]pyridin-2-amine] | 0.336
28 | Cc1nc(NCc2ccnn2C)c2c(-c3ccnc(N)c3)c[nH]c2n1 [Example 38, 5-(2-aminopyridin-4-yl)-2-methyl-N-[(1-methyl-1H-pyrazol-5-yl)methyl]-7H-pyrrolo[2,3-d]pyrimidin-4-amine] | 0.149
29 | COC1CCCN(c2nc(C)nc3[nH]cc(-c4cc(N)nc(N)c4)c23)C1 (centres unmarked) [Example 144, 4-[4-(3-methoxypiperidin-1-yl)-2-methyl-7H-pyrrolo[2,3-d]pyrimidin-5-yl]pyridine-2,6-diamine] | 0.545
30 | CCC(Nc1nc(C)nc2[nH]cc(-c3ccnc(N)c3)c12)c1ncccc1F (centres unmarked) [Example 121, 5-(2-aminopyridin-4-yl)-N-[1-(3-fluoropyridin-2-yl)propyl]-2-methyl-7H-pyrrolo[2,3-d]pyrimidin-4-amine] | 0.066
31 | Cc1nc(NCc2cccc(F)c2)c2c(-c3ccnc(N)c3)c[nH]c2n1 [Example 50, 5-(2-aminopyridin-4-yl)-N-(3-fluorobenzyl)-2-methyl-7H-pyrrolo[2,3-d]pyrimidin-4-amine] | 0.045
32 | Cc1nc(C2CCc3ccccc3C2)c2c(-c3ccnc(N)c3)c[nH]c2n1 (centres unmarked) [Example 188] | 0.07
33 | Cc1nc(N2CCCC2C(F)(F)F)c2c(-c3ccnc(N)c3)c[nH]c2n1 (centres unmarked) [Example 107, 4-{2-methyl-4-[2-(trifluoromethyl)pyrrolidin-1-yl]-7H-pyrrolo[2,3-d]pyrimidin-5-yl}pyridin-2-amine] | 0.666
34 | Cc1nc(N2CC3(CCCCC3)C2)c2c(-c3ccnc(N)c3)c[nH]c2n1 [Example 109, 4-[4-(2-azaspiro[3.5]non-2-yl)-2-methyl-7H-pyrrolo[2,3-d]pyrimidin-5-yl]pyridin-2-amine] | 0.524
35 | Cc1nc(OCc2cccnc2)c2c(-c3ccnc(N)c3)c[nH]c2n1 [Example 22, 4-[2-methyl-4-(pyridin-3-ylmethoxy)-7H-pyrrolo[2,3-d]pyrimidin-5-yl]pyridin-2-amine] | 0.018
36 | Cc1nc(N2CCCC2)c2c(-c3ccnc(N)c3)c[nH]c2n1 [Example 30, 4-[2-methyl-4-(pyrrolidin-1-yl)-7H-pyrrolo[2,3-d]pyrimidin-5-yl]pyridin-2-amine] | 0.827
37 | Cc1nc(N2CCC3(CCC(C)CC3)C2)c2c(-c3ccnc(N)c3)c[nH]c2n1 (centres unmarked) [Example 102, 4-[2-methyl-4-(8-methyl-2-azaspiro[4.5]dec-2-yl)-7H-pyrrolo[2,3-d]pyrimidin-5-yl]pyridin-2-amine] | 0.293
38 | Cc1nc(N2CCOCC2)c2c(-c3cc(N)nc(N)c3)c[nH]c2n1 [Example 140, 4-[2-methyl-4-(morpholin-4-yl)-7H-pyrrolo[2,3-d]pyrimidin-5-yl]pyridine-2,6-diamine] | 1.22
39 | Cc1nc(N[C@H]2CCc3ccccc32)c2c(-c3ccnc(N)c3)c[nH]c2n1 [Example 77, 5-(2-aminopyridin-4-yl)-N-[(1S)-2,3-dihydro-1H-inden-1-yl]-2-methyl-7H-pyrrolo[2,3-d]pyrimidin-4-amine] | 0.057
40 | Cc1nc(N[C@@H](C)c2ccccc2)c2c(-c3ccnc(N)c3)c[nH]c2n1 [Example 67, 5-(2-aminopyridin-4-yl)-2-methyl-N-[(1S)-1-phenylethyl]-7H-pyrrolo[2,3-d]pyrimidin-4-amine] | 0.094
41 | Cc1nc(N2CCc3nccnc3C2)c2c(-c3cc(N)nc(N)c3)c[nH]c2n1 [Example 142, 4-[4-(7,8-dihydropyrido[3,4-b]pyrazin-6(5H)-yl)-2-methyl-7H-pyrrolo[2,3-d]pyrimidin-5-yl]pyridine-2,6-diamine] | 0.512
42 | Cc1nc(CN2CCC(F)(F)C2)c2c(-c3ccnc(N)c3)c[nH]c2n1 [Example 176] | 0.196
43 | Cc1nc(-c2cccc(C(F)(F)F)c2)c2c(-c3ccnc(N)c3)c[nH]c2n1 [Example 168, 4-{2-methyl-4-[3-(trifluoromethyl)phenyl]-7H-pyrrolo[2,3-d]pyrimidin-5-yl}pyridin-2-amine] | 0.01
44 | Cc1nc(N2CCC3(CCCCC3)CC2)c2c(-c3ccnc(N)c3)c[nH]c2n1 [Example 101, 4-[4-(3-azaspiro[5.5]undec-3-yl)-2-methyl-7H-pyrrolo[2,3-d]pyrimidin-5-yl]pyridin-2-amine] | 0.034
